Read-outs that look alike come from different tables or passages of the source.
Legend:
TLR7 = target: T1, TLR7 (Homo sapiens, UniProt Q9NYK1); assay: Human PBMC cell-based assay, TLR7 agonist GS-986 stimulation, cytokine (IL-6 and IFNα) readout; conditions: human PBMCs, read-out: TLR-7 EC50
T1 construct: lymphocytes, monocytes and dendritic cells that express TLR7, TLR8 and TLR9; endogenous in cells; host or cells: human PBMCs from healthy donors
T1 sequence (Q9NYK1 27-1049): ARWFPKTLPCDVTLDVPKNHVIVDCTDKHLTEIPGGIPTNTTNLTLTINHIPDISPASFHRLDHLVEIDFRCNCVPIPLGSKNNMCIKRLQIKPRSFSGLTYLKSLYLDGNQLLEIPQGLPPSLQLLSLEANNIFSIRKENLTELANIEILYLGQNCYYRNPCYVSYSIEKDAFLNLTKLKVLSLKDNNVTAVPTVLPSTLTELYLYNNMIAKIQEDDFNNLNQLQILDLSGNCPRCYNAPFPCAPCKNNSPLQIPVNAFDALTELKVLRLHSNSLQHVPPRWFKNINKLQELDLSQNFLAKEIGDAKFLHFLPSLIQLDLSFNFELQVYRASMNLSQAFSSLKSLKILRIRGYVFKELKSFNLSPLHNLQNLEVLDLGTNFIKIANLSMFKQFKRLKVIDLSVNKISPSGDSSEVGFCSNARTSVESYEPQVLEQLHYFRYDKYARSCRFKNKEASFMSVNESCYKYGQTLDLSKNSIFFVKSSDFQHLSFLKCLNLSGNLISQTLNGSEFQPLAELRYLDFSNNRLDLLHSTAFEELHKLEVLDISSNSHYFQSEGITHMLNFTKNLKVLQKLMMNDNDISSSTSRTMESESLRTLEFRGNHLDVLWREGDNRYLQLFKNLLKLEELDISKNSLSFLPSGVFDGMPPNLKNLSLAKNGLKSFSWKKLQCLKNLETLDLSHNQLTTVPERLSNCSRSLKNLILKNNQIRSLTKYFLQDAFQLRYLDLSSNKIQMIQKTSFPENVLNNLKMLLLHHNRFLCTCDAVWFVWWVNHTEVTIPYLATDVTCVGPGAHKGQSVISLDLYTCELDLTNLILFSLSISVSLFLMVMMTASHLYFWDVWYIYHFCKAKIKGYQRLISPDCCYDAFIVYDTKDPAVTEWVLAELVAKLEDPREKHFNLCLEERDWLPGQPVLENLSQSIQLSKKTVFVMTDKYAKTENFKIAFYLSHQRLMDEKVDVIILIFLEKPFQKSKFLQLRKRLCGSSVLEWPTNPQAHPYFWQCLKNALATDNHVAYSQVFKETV
How it was run: (§1)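 Readout is IL-6 and IFNα in supernatants, quantified by electrochemiluminescence, with EC50 from a sigmoidal fit of cytokine versus concentration. Healthy-donor human PBMCs, 100,000 per well, got antagonist for 1 h at 37 °C, then 6 h agonist exposure: TLR7 via GS-986 at 400 nM final, TLR9 via ODN-2216 at 3 μM final.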

TLR9 = target: T2, TLR9 (Homo sapiens, UniProt Q9NR96); assay: Human PBMC cell-based assay, TLR9 agonist ODN-2216 stimulation, cytokine (IL-6 and IFNα) readout; conditions: human PBMCs, ODN-2216 3 μM, 6 hours; Table 26; read-out: TLR-9 EC50
T2 construct: lymphocytes, monocytes and dendritic cells that express TLR7, TLR8 and TLR9; endogenous in cells; host or cells: human PBMCs from healthy donors
T2 sequence (Q9NR96 26-1032): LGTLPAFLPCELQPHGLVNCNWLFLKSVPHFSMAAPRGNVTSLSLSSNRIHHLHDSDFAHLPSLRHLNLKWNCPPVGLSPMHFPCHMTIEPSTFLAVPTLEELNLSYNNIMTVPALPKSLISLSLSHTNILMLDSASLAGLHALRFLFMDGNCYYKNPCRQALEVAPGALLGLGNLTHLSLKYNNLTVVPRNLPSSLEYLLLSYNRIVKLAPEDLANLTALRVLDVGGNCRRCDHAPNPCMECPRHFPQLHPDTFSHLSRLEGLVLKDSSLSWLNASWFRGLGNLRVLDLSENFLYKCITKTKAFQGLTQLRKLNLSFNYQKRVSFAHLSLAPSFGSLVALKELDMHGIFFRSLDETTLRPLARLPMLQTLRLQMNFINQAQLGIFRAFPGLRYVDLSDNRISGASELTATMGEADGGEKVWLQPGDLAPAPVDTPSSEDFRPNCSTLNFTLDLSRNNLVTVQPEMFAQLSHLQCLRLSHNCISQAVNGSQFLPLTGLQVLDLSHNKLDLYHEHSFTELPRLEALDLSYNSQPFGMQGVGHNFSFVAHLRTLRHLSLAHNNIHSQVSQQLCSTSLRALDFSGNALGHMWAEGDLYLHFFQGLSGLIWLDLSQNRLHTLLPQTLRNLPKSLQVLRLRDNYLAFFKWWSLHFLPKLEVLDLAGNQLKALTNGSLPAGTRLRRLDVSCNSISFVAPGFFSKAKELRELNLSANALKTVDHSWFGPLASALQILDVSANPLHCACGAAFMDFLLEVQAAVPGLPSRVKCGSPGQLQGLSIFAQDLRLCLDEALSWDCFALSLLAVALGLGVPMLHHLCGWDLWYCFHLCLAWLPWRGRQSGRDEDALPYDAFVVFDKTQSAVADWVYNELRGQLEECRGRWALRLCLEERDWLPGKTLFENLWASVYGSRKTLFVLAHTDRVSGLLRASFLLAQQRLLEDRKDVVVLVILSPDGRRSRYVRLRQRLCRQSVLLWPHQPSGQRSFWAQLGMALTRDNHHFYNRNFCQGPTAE
How it was run: as §1

[1] = GS-986 400 nM, 6 hours, Table 26

| Compound | EC50 (TLR7; [1]) [nM] | EC50 (TLR9) [nM] | EC50 (TLR7; Table 27 comparison) [nM] |
| --- | --- | --- | --- |
| Cc1cc(-c2[nH]c3cc(-c4ccc(N5CCNCC5)nc4)ccc3c2C)cc(C)n1 [Example 1, 2-(2,6-dimethylpyridin-4-yl)-3-methyl-6-(6-(piperazin-1-yl)pyridin-3-yl)-1H-indole] | 18.1 | 51.9 | – |
| Cc1cc(-c2[nH]c3cc(C4CCNCC4)ccc3c2C(C)C)cn2ncnc12 [Example 55] | 4.8 | 3980 | – |
| Cc1c(-c2cc(C)c3ncnn3c2)[nH]c2cc(-c3ccc(N4CCNCC4)nc3)ccc12 [Example 71] | 1.2 | 630 | – |
| CCc1c(-c2cc(C)c3ncnn3c2)[nH]c2cc(-c3ccc(N4CCNCC4)nc3)ccc12 [Example 167, 6-(3-ethyl-6-(6-(piperazin-1-yl)pyridin-3-yl)-1H-indol-2-yl)-8-methyl-[1,2,4]triazolo[1,5-a]pyridine] | 0.17 | 393 | – |
| CCc1c(-c2cc(OC)c3ncnn3c2)[nH]c2cc(-c3ccc(N4CCNCC4)nc3)ccc12 [Example 169] | 0.13 | 502 | – |

Next, values leading:

| EC50 (TLR7; [1]) [nM] | EC50 (TLR9) [nM] | EC50 (TLR7; Table 27 comparison) [nM] | Compound |
| --- | --- | --- | --- |
| 17.3 | 37.5 | – | Cc1cc(-c2[nH]c3cc(-c4ccc(N5CCN(CCO)CC5)nc4)ccc3c2C)cc(C)n1 [Example 37, 2-(4-(5-(2-(2,6-dimethylpyridin-4-yl)-3-methyl-1H-indol-6-yl)pyridin-2-yl)piperazin-1-yl)ethan-1-ol] |
| 692 | 136 | – | Cc1cc(-c2[nH]c3cc(C4CCNCC4)ccc3c2C)cc(C)n1 [Example 48, 2-(2,6-dimethylpyridin-4-yl)-3-methyl-6-(piperidin-4-yl)-1H-indole] |
| > 1000 | 181 | > 1000 | Cc1cc(-c2[nH]c3cc(C4CCCNC4)ccc3c2C)cc(C)n1 (stereo not shown) [Example 53] |
| 0.33 | 186 | – | Cc1cc(-c2[nH]c3cc(-c4ccc(N5CCNCC5)nc4)ccc3c2C2CC2)cn(C)c1=O [Example 165] |

From patent US20250002471A1 (Gilead Sciences, Inc., priority 2020, published 2025)
